Source: patent US8455492B2, “Methods for treating retinal diseases” (Allergan, Inc., priority 1995, dated 2013)
Where two headings read alike, the source gives them in different places.

Experiments:
[1] = system: rat hippocampal neuronal cultures; experiment: Glutamate induced excitotoxic effects on nerve cells (percentage of dead cells, trypan blue); type: cell-based; conditions: FIG. 1; day 8; 1 mM glutamate; AGN-191103 0.1 nM, MK-801 10 nM
Description: Low-density rat hippocampal neuronal cultures were prepared by the procedure of Goslin and Banker. […] Coverslips (13 mm) were placed in staining racks, rinsed in distilled water (four rinses, 1 min. each) to remove dust and transferred to concentrated HNO3 for 36 hours. Coverslips were rinsed in distilled water (four changes over 3 hours) and sterilized with dry heat (overnight at 225° C.). The coverslips were transferred to 24-well dishes, one coverslip per well. To support the coverslips above the glia during coculturing, paraffin dots were placed on dishes, and UV irradiation (30 min.) was applied before the coverslips were introduced. One mg/mL of poly-L-lysine hydrobromide (PLL) (Sigma) (MW 30,000-70,000) was dissolved in borate buffer (0.1 M, pH 8.5), filtered, sterilized and used to cover each coverslip overnight. The PLL was removed, coverslips were rinsed in distilled water (two washes, 2 hrs. each), plating medium [Eagle's MEM with Earle's salts containing extra glucose (600 mg/L) and 10% horse serum] was added and the dishes were stored in an incubator. […]
After 24 hrs. of incubation, cells were stained with trypan blue. Live and dead neurons were counted from randomly selected culture fields (5 fields from each coverslip). Percentage of dead cells was calculated.

intraocular pressure [2] = conditions: monkeys; topical to the cornea; cited from earlier work
retina = conditions: FIG. 5; topical 10 μl one hour before ischemia insult; ERG one week after insult
Description: FIG. 5 is a bar graph showing the results of a study to determine the topical efficacy of brimonidine in neuroprotection. The rat acute retinal ischemia model was used to provide the noxious action. Brimonidine was applied topically one hour before ischemia insult, 10 μl to one eye, 10 μl saline to the other eye. The ERG (electroretinogram) was measured one week after the insult.

intraocular pressure [3] = conditions: rabbits; topical to the cornea; cited from earlier work
intraocular pressure [4] = conditions: cats; topical to the cornea; cited from earlier work
rat optic nerve = conditions: FIG. 3, optic nerve crush in rats

SMILES: C[C@]12N[C@H](Cc3ccccc31)c1ccccc12 [MK-801, dizocilpine]
- protection of cells from glutamate induced neurotoxicity (percentage of cells killed) [1]: comparable effects in protecting cells from glutamate induced neurotoxicity

SMILES: Brc1c(NC2=NCCN2)ccc2nccnc12 [brimonidine]
- reduction of intraocular pressure (intraocular pressure [2]): effective in reducing intraocular pressure
- topical neuroprotection (percent of ERG signal recovery) (retina): provides topical neuroprotection in a dose dependent manner
- reduction of intraocular pressure (intraocular pressure [3]): effective in reducing intraocular pressure
- reduction of intraocular pressure (intraocular pressure [4]): effective in reducing intraocular pressure

SMILES: Clc1cccc(Cl)c1N=C1NCCN1 [clonidine]
- maximal CAP response relative to AGN 191103 (rat optic nerve): about half the maximal CAP response of AGN 191013
- neuroprotective activity (maximal CAP amplitude) versus vehicle (rat optic nerve; four concentrations): some neuroprotective activity over vehicle alone
